Reference: patent US11155550B2, “Histone deacetylase inhibitors and methods of use thereof” (Reaction Biology Corp., priority 2018, dated 2021)

Assays:
Conditions in all cases: Table 2; incubation time 10 min
Human HDAC4 = biological target: T1, Human HDAC4 (Homo sapiens, UniProt P56524); assay: Biochemical HDAC enzymatic assay, HDAC4
T1 construct: amino acids 627-1085 with a N-terminal GST tag; GST tag (N); made in house; host or cells: baculovirus expression system
Protocol: (§1) Incubation time for HDAC1/2 is 120 min, and 10 min for other HDACs.
Human HDAC4 (GenBank Accession No. NM_006037), amino acids 627-1085 with a N-terminal GST tag, MW=75.2 kDa, was expressed in a baculovirus expression system.
(§2) • I. Compound handling: Testing compounds were dissolved in 100% DMSO to a specific concentration. The serial dilution was conducted by epMotion 5070 in DMSO. • II. HDAC reaction buffer: 50 mM Tris-HCl, pH8.0, 137 mM NaCl, 2.7 mM KCl, and 1 mM MgCl2, Added fresh: 1 mg/ml BSA, 1% DMSO. • III. […] Delivered 2× Substrate Mixture (Fluorogenic HDAC Substrate and co-factor ([…] of Nicotinamide adenine dinucleotide (NAD^+) in all Sirt assay) in all reaction wells to initiate the reaction. Spin and shake. • d. Incubated for 1-2 hr. at 30° C. with seal. • e. Added Developer with Trichostatin A (or TMP269 or NAD^+) to stop the reaction and to generate fluorescent color. • f. Fluorescence was read (excitatory, 360; emission, 460) using the EnVision Multilabel Plate Reader (Perkin Elmer) • g. Endpoint reading was taken for analysis after the development reaches plateau. • V. Data Analysis: The percentages of enzyme activity (relative to DMSO controls) and IC50 values were calculated using the GraphPad Prism 4 program based on a sigmoidal dose-response equation. […]

Human HDAC5 = biological target: T2, Human HDAC5 (Homo sapiens, UniProt Q9UQL6); assay: Biochemical HDAC enzymatic assay, HDAC5
T2 construct: full-length with an N-terminal GST tag, MW=150 kDa; GST tag (N); made in house; host or cells: baculovirus expression system
Protocol: as §1
Human HDAC5 (GenBank Accession No. NM_005474), full-length with an N-terminal GST tag, MW=150 kDa, was expressed in a baculovirus expression system.
as §2

Human HDAC7 = biological target: T3, Human HDAC7 (Homo sapiens, UniProt Q8WUI4); assay: Biochemical HDAC enzymatic assay, HDAC7
T3 construct: (a.a. 518-end) with an N-terminal GST tag; GST tag (N); made in house; host or cells: baculovirus expression system
T3 sequence (Q8WUI4 479-952 limits assumed): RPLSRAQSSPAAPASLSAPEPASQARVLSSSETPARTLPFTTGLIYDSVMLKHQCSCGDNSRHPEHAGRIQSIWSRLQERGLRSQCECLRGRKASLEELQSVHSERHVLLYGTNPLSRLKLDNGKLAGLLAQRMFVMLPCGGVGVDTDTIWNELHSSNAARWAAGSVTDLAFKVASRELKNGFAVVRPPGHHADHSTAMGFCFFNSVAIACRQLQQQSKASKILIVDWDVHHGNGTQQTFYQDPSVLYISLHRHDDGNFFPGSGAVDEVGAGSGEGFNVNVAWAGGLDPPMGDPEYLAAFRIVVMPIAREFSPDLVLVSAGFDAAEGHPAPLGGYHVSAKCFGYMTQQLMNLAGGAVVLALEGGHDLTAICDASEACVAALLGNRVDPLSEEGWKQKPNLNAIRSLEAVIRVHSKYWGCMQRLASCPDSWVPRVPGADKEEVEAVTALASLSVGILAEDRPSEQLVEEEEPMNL
Protocol: as §1
Human HDAC7 (GenBank Accession No. AY302468), (a.a. 518-end) with an N-terminal GST tag, MW=78 kDa, was expressed in a baculovirus expression system.
as §2

Human HDAC9 = biological target: T4, Human HDAC9 (Homo sapiens, UniProt Q9UKV0); assay: Biochemical HDAC enzymatic assay, HDAC9
T4 construct: amino acids 604-1066 with a C-terminal His tag; His tag (C); made in house; host or cells: baculovirus expression system
Protocol: as §1
Human HDAC9 (GenBank Accession No. NM_178423), amino acids 604-1066 with a C-terminal His tag, MW=50.7 kDa, was expressed in a baculovirus expression system.
as §2

Human HDAC10 = biological target: T5, Human HDAC10 (Homo sapiens, UniProt Q969S8); assay: Biochemical HDAC enzymatic assay, HDAC10
T5 construct: Human HDAC10 (a.a. 1-481); GST tag (N); His tag (C); made in house; host or cells: baculovirus expression system
T5 sequence (Q969S8 1-481): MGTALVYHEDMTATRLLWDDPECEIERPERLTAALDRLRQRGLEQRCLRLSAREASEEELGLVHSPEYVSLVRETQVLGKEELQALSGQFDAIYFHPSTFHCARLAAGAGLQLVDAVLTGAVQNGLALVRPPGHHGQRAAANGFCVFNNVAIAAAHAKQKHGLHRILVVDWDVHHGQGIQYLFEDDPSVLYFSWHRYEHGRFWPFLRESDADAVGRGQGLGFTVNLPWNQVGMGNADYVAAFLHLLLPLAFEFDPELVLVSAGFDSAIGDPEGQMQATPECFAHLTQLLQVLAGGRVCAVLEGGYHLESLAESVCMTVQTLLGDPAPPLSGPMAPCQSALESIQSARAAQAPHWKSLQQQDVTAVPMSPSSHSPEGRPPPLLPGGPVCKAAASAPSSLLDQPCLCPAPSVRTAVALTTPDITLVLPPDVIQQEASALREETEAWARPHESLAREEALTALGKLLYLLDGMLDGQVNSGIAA
Protocol: as §1
Human HDAC10 (a.a. 1-481), GenBank Accession No. NM_032019 with a N-terminal GST tag and a C-terminal His tag, MW=78 kDa, was expressed in a baculovirus expression system.
as §2

T4 sequence (Q9UKV0 604-1066 isoform Q9UKV0-5): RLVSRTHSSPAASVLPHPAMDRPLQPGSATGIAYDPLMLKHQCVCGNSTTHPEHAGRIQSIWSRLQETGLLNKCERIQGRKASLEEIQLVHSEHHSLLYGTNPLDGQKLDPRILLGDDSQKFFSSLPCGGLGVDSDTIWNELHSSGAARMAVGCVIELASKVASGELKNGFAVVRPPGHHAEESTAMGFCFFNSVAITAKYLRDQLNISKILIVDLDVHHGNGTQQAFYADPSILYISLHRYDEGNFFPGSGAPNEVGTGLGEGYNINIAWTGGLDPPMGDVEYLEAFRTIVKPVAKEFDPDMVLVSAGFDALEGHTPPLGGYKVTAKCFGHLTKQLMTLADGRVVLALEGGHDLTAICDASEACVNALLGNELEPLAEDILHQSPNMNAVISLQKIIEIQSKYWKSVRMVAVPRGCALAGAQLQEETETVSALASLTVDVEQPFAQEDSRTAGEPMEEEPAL
T2 sequence (Q9UQL6 whole entry): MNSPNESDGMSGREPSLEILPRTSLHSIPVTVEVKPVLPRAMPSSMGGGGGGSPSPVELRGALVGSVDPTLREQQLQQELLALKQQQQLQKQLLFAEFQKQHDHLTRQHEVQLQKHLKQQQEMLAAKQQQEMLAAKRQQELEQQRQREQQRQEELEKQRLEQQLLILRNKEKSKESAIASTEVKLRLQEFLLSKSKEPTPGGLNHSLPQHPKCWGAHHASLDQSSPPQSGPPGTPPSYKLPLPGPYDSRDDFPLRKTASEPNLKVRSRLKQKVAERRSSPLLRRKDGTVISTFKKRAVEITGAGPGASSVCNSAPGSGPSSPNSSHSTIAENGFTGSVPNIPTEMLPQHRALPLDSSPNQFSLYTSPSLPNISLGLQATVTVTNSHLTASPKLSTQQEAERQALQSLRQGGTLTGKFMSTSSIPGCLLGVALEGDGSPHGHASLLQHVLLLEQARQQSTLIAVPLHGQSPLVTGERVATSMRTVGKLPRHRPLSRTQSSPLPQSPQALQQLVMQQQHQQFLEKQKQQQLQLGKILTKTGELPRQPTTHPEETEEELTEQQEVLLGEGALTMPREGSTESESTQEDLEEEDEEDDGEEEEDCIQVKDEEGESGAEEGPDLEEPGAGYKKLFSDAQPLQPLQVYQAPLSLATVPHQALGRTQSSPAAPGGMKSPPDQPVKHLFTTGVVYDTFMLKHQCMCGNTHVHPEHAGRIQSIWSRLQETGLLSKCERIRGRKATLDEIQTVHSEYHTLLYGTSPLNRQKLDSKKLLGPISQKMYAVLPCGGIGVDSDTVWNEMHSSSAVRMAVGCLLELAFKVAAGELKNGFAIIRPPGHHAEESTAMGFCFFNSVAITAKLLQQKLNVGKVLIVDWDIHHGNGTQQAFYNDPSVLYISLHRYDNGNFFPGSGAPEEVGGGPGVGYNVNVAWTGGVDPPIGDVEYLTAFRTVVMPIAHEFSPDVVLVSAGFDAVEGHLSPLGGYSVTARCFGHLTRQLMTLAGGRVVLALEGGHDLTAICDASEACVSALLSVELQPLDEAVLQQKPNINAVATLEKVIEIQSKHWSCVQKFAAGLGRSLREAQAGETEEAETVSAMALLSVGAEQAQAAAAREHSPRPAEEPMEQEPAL
T1 sequence (P56524 627-1084 limits assumed): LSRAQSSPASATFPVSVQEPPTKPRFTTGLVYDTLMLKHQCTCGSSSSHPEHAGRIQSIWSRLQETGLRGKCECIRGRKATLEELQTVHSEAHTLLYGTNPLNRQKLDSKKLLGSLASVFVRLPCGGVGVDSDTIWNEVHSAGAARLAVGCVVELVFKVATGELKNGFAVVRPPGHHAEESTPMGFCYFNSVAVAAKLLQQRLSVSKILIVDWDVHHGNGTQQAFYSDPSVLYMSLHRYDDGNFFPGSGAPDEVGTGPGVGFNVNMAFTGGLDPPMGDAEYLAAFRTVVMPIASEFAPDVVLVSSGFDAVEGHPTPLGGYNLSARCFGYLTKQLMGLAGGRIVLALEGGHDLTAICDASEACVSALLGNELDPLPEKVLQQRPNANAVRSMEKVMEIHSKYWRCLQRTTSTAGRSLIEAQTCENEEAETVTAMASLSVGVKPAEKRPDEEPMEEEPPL

Row | SMILES | IC50 (Human HDAC4) | IC50 (Human HDAC5) | IC50 (Human HDAC7) | IC50 (Human HDAC9) | IC50 (Human HDAC10)
1 | O=C(NO)c1ccc(CN2C(=O)c3ccccc3C23CCN(C2CC2)CC3)cc1 [Compound Example 12, 4-((1′-cyclopropyl-3-oxospiro[isoindoline-1,4′-piperidin]-2-yl)methyl)-N-hydroxybenzamide] | > 10 µM | > 10 µM | 3.1 µM | 6.9 µM | > 10 µM
2 | CN(C)C(=O)N1CCC2(CC1)c1ccccc1C(=O)N2Cc1ccc(C(=O)NO)cc1 [Compound Example 11, 2-(4-(hydroxycarbamoyl)benzyl)-N,N-dimethyl-3-oxospiro[isoindoline-1,4′-piperidine]-1′-carboxamide] | 5 µM | 1.55 µM | 0.85 µM | 3.2 µM | > 10 µM
